Here are results for five sequences from patent US12527846B2, “Immunodominant proteins and fragments in multiple sclerosis” (UNIVERSITÄT ZÜRICH, priority 2018, dated 2026).

The test system of assay [1] is TCC21.1. It is filed as cell-based, human. As to the method:
TCC21.1 was then tested with the complete decapeptide positional scanning library (200 mixtures; i.e. mixtures representing the 10 positions of a 10-mer and in each of the fixed positions one of the 20 L-amino acids), presented by BCL expressing DRB1*15:01 class II molecules. A similar response pattern was obtained with IL-10 release. Next, a biometrical analysis scoring matrix was generated by assigning numerical values to the stimulatory potential of each of the 20 defined AAs in each of the ten positions of the decapeptide library as previously described (Zhao et al., 2001). Here, the values were calculated as the log base 10 of the median GM-CSF (pg/ml) secretion of three independent experiments in the presence of mixtures, minus the secretion in the absence of mixtures (FIG. 3B). Based on a model of independent contribution of individual AAs to peptide antigen recognition, the predicted stimulatory score of a given peptide is the sum of the matrix values of each AA contained in the peptide at each position (Zhao et al., 2001). […] Using the new “harmonic boost” frame 1 and frame 2 matrices, all natural overlapping 10-mers peptides derived from the UniProt human protein database were scored and ranked as schematically shown in FIG. 2. […]

Assay [2] deals with TCC21.1. In words: Proliferation of TCC21.1 in response to GDP-L-fucose synthase peptides presented by autologous APCs. It is filed as cell-based, human. The note with it: 15-mer peptides overlapping by 10 AAs, presented by autologous PBMCs.
Assay [3] deals with TCC21.1. In words: Intracellular cytokine staining of TCC21.1 after peptide stimulation. The format is cell-based, human. The procedure:
Next, the response of TCC21.1 to GDP-L-fucose synthase peptides presented by autologous irradiated PBMCs and BCL was characterized. GDP-L-fucose synthase peptides presented by the two types of APCs were able to induce proliferation. The functional phenotype of this response was also analyzed. […] Unexpectedly, when peptides were presented by autologous BCL, they induced higher levels of IFNγ. In addition, TCC21.1 also released GM-CSF and IL-3 in response to GDP-L-fucose synthase peptides. The release of these two cytokines seems to be a specific feature of this TCC compared with other Th1, Th1* or Th1/2 TLCs that were generated from patients with different conditions. Intracellular cytokine staining confirmed the Th2 functional phenotype of TCC21.1 in response to GDP-L-fucose synthase (96-105, SEQ ID NO: 16). More than 60% of TCC21.1 cells were IL-4+ after stimulation with GDP-L-fucose synthase (96-105, SEQ ID NO: 16), while only around 12% were IFNγ+. Around 60% of the cells were GM-CSF+ and 47.7% of these also IL-4+.
For intracellular cytokine staining, TCC21.1 was analyzed 48 h after stimulation. After 5 h in presence of GolgiStop protein transport inhibitor (BD Biosciences), T cells were labeled with Live/Dead® Aqua (Invitrogen). Following fixation and permeabilization with Cytofix/Cytoperm (BD Biosciences), cells were stained with antibodies against CD4 (APC-Cy7, Biolegend), IFN-γ (FITC, Biolegend), IL-4 (PE, BD Bioscience), GM-CSF (APC, Biolegend) and IL-3 (PE, Biolegend) in PBS containing saponin and BSA, and analyzed by flow cytometry.

In assay [4] the test system is TCC14. The conditions noted are these: read-out: EC50 (antigen avidity); dose titration, BLS DR2b, proliferation after 72 h.
In assay [5] the test system is TCC14. In words: Cytokine secretion of TCC14 on recognition of the RASGRP2 peptide. The conditions noted are these: data not shown. The format is cell-based, human.

Ends that are not written are not given here.

As to “VLHSAFEVGA (listed as Homo sapiens) [SEQ ID NO: 18]”, in the assay on TCC21.1 [1] (individual decapeptides at 5 pg/ml, presented by BLS cells expressing DRB1*15:01), the “GM-CSF release by TCC21.1 (stimulatory capacity)” value is on record as “induced GM-CSF release”.

Turning to “VHMNDNVLHSAFEVG (listed as Homo sapiens) [SEQ ID NO: 14]”, the “recognition by TCC21.1 (proliferation)” value in the assay on TCC21.1 [2] is “recognized”.

As a reminder, the EC50 is the midpoint of the concentration-response curve. As for NVLHSAFEVG [SEQ ID NO: 16, NVLHSAFEVG], a half-maximal effect in the assay with TCC21.1 [1] (EC50) was put at 0.2 µg/mL. Besides, in the assay on TCC21.1 [3], the “GM-CSF+ TCC21.1 cells also IL-4+” value is 47.7%, the “TCC21.1 cells GM-CSF+” value was “Around 60%”, the “TCC21.1 cells IFNγ+” value is recorded as “around 12%” and the “TCC21.1 cells IL-4+” value was “More than 60%”.

As to “NVLHSAFEVGARKVV (listed as Homo sapiens) [SEQ ID NO: 17]”, the “recognition by TCC21.1 (proliferation)” value with TCC21.1 [2] was “recognized”.

As for LVRYWISAFP [SEQ ID NO: 33, LVRYWISAFP], in the assay with TCC14 [4], the EC50 stood at 12 nM. For the same sequence, the “cytokine secretion by TCC14” value in the assay on TCC14 [5] was “secretion of Th2 cytokines and also of IFN-γ”.
